{"source": "paper PMC8236452", "about": "“Pharmacokinetics and safety of rucaparib in patients with advanced solid tumors and hepatic impairment” (Cancer Chemotherapy and Pharmacology, 2021)", "key": {"[1]": {"assay": "Urine pharmacokinetics (Ae0–24, CLR) after a single oral dose of rucaparib 600 mg in patients with advanced solid tumors", "type": "in vivo, human", "settings": "urine, single oral rucaparib 600 mg; for CL renal: human, po, 600 mg", "description": "Stable deuterium-labeled analytes were used as internal standards.\nPK parameters were estimated from the concentration–time profiles."}, "[2]": {"settings": "cited from earlier work"}, "[3]": {"set-up": "method as in PMID 32129697", "settings": "in vitro; cited from earlier work"}, "[4]": {"settings": "cited from earlier work", "remark": "listed apart in the source"}, "[5]": {"assay": "Plasma pharmacokinetics after a single oral dose of rucaparib 600 mg in patients with advanced solid tumors, by hepatic function group", "settings": "for AUC(0-inf) / AUC(0-t) / Cmax: human, plasma, 600 mg; for AUC(0-t): AUC0–last", "quoted_text": "In Part 1, patients received a single oral dose of rucaparib 600 mg on day 1; PK samples were collected and safety monitored through day 7.\nSample collection, processing, and shipping were conducted according to standardized protocols shared across study sites. Plasma samples were collected for PK analysis at the predose assessment and at 1, 2, 3, 4, 8, 12, 24, 48, 72, 96, 120, and 144 h postdose. A predose urine sample was collected less than 12 h prior to study drug administration. Total urine was collected 0–12 h and 12–24 h postdose. Total (bound and unbound) concentrations of rucaparib and its metabolite M324 in plasma and urine samples were determined by Q Squared Solutions BioSciences (Ithaca, NY, USA) using validated liquid chromatography mass spectrometry/mass spectrometry methods. Stable deuterium-labeled analytes were used as internal standards. The assay calibration ranges for plasma samples were 5–10,000 ng/mL for rucaparib and 1–1000 ng/mL for M324 with lower limits of quantification (LLOQ) of 5.00 and 1.00 ng/mL, respectively. For urine samples, the calibration range was 500–50,000 ng/mL for both rucaparib and M324, with a LLOQ of 500 ng/mL for both analytes. The precision was within 9.3% CV, and the accuracy was within ± 6.2%.\nPK parameters were estimated from the concentration–time profiles. Actual elapsed time after dosing was used to estimate plasma PK parameters based on noncompartmental methods using Phoenix® WinNonlin® version 8.1.0 (Certara USA, Inc., Princeton, NJ, USA). […] Exploratory PK parameters for M324 calculated based on plasma and urine concentration-time data were Cmax, AUC0–last, AUC0–inf, t1/2, tmax, Ae0–24, and CLR, as data allowed.\nPK parameters were calculated by noncompartmental analysis, analyzed using descriptive statistics, and presented by hepatic functional status. Analysis of variance (ANOVA) was used to compare PK parameters (e.g., Cmax, AUC0–last, and AUC0–inf) between the normal hepatic function group and the moderate hepatic impairment group per NCI-ODWG criteria. PK values were log-transformed before analysis. Baseline covariates (e.g., creatinine clearance [CLcr], sex, age, BMI, and ECOG PS) were tested for any significant effect (P value < 0.05). Geometric least-squares means were used to calculate the ratios of the PK parameters in the hepatic impairment group to those in the control group, along with 90% confidence intervals (CIs). The Wilcoxon rank-sum test was used to compare tmax values between the two groups, and estimates of the median differences were determined, along with 90% CIs. In addition, the relationships between log-transformed PK parameters (AUC0–last, AUC0–inf, Cmax) for rucaparib and M324 and hepatic function parameters (bilirubin and aspartate aminotransferase [AST]) relevant to the classification of hepatic impairment according to NCI-ODWG were explored by a linear regression approach."}, "[6]": {"settings": "Child–Pugh mild hepatic impairment"}, "[7]": {"settings": "Child–Pugh moderate hepatic impairment"}, "[8]": {"settings": "Child–Pugh severe hepatic impairment"}, "[9]": {"settings": "NCI-ODWG moderate hepatic impairment"}, "[10]": {"settings": "NCI-ODWG normal hepatic function"}, "[11]": {"settings": "estimated with 36% absolute oral bioavailability"}, "[12]": {"settings": "ANOVA, NCI-ODWG moderate hepatic impairment vs normal hepatic function"}, "[13]": {"settings": "Child–Pugh mild hepatic impairment, single oral rucaparib 600 mg"}, "[14]": {"settings": "Child–Pugh moderate hepatic impairment, single oral rucaparib 600 mg"}, "[15]": {"settings": "Child–Pugh severe hepatic impairment, single oral rucaparib 600 mg"}, "[16]": {"settings": "NCI-ODWG moderate hepatic impairment, single oral rucaparib 600 mg"}, "[17]": {"settings": "NCI-ODWG normal hepatic function, single oral rucaparib 600 mg"}, "[18]": {"settings": "oral, Geometric LS means, ANOVA, NCI-ODWG moderate hepatic impairment (n = 8)"}, "[19]": {"settings": "oral, Geometric LS means, ANOVA, NCI-ODWG normal hepatic function (n = 8)"}}, "note": "Read-outs that look alike come from different tables or passages of the source.", "data": [{"molecule": "CNCc1ccc(-c2[nH]c3cc(F)cc4c3c2CCNC4=O)cc1", "note": "[rucaparib]", "values": [{"measurement": "CL renal", "setting": "[1]; Child–Pugh mild hepatic impairment, read-out: CLR, GM", "value": 55.2, "unit": "mL/min"}, {"measurement": "CL renal", "setting": "[1]; Child–Pugh mild hepatic impairment, read-out: CLR, Mean (SD)", "value": 56.7, "unit": "mL/min"}, {"measurement": "CL renal", "setting": "[1]; Child–Pugh mild hepatic impairment, read-out: CLR, Median (min–max)", "value": 59.5, "unit": "mL/min"}, {"measurement": "CL renal", "setting": "[1]; Child–Pugh moderate hepatic impairment, read-out: CLR, GM", "value": 48.8, "unit": "mL/min"}, {"measurement": "CL renal", "setting": "[1]; Child–Pugh moderate hepatic impairment, read-out: CLR, Mean (SD)", "value": 52.3, "unit": "mL/min"}, {"measurement": "CL renal", "setting": "[1]; Child–Pugh moderate hepatic impairment, read-out: CLR, Median (min–max)", "value": 53.7, "unit": "mL/min"}, {"measurement": "CL renal", "setting": "[1]; Child–Pugh severe hepatic impairment, read-out: CLR, GM", "value": 16, "unit": "mL/min"}, {"measurement": "CL renal", "setting": "[1]; Child–Pugh severe hepatic impairment, read-out: CLR, Mean (SD)", "value": 20.1, "unit": "mL/min"}, {"measurement": "CL renal", "setting": "[1]; Child–Pugh severe hepatic impairment, read-out: CLR, Median (min–max)", "value": 20.1, "unit": "mL/min"}, {"measurement": "CL renal", "setting": "[1]; NCI-ODWG moderate hepatic impairment, read-out: CLR, GM", "value": 36.9, "unit": "mL/min"}, {"measurement": "CL renal", "setting": "[1]; NCI-ODWG moderate hepatic impairment, read-out: CLR, Mean (SD)", "value": 46.2, "unit": "mL/min"}, {"measurement": "CL renal", "setting": "[1]; NCI-ODWG moderate hepatic impairment, read-out: CLR, Median (min–max)", "value": 41.1, "unit": "mL/min"}, {"measurement": "CL renal", "setting": "[1]; NCI-ODWG normal hepatic function, read-out: CLR, GM", "value": 52.5, "unit": "mL/min"}, {"measurement": "CL renal", "setting": "[1]; NCI-ODWG normal hepatic function, read-out: CLR, Mean (SD)", "value": 53.5, "unit": "mL/min"}, {"measurement": "CL renal", "setting": "[1]; NCI-ODWG normal hepatic function, read-out: CLR, Median (min–max)", "value": 56.1, "unit": "mL/min"}, {"measurement": "Ae0–24, GM", "setting": "[1]; [6]", "value": 17.6, "unit": "mg"}, {"measurement": "Ae0–24, Mean (SD)", "setting": "[1]; [6]", "value": "20.7 (11.9) mg"}, {"measurement": "Ae0–24, Median (min–max)", "setting": "[1]; [6]", "value": "21.4 (7.69–40.6) mg"}, {"measurement": "Ae0–24, GM", "setting": "[1]; [7]", "value": 28.2, "unit": "mg"}, {"measurement": "Ae0–24, Mean (SD)", "setting": "[1]; [7]", "value": "29.8 (9.93) mg"}, {"measurement": "Ae0–24, Median (min–max)", "setting": "[1]; [7]", "value": "33.2 (16.7–41.5) mg"}, {"measurement": "Ae0–24, GM", "setting": "[1]; [8]", "value": 8.49, "unit": "mg"}, {"measurement": "Ae0–24, Mean (SD)", "setting": "[1]; [8]", "value": "8.89 (3.72) mg"}, {"measurement": "Ae0–24, Median (min–max)", "setting": "[1]; [8]", "value": "8.89 (6.26–11.5) mg"}, {"measurement": "Ae0–24, GM", "setting": "[1]; [9]", "value": 16.0, "unit": "mg"}, {"measurement": "Ae0–24, Mean (SD)", "setting": "[1]; [9]", "value": "19.8 (13.7) mg"}, {"measurement": "Ae0–24, Median (min–max)", "setting": "[1]; [9]", "value": "16.7 (6.26–41.5) mg"}, {"measurement": "Ae0–24, GM", "setting": "[1]; [10]", "value": 22.8, "unit": "mg"}, {"measurement": "Ae0–24, Mean (SD)", "setting": "[1]; [10]", "value": "25.4 (10.9) mg"}, {"measurement": "Ae0–24, Median (min–max)", "setting": "[1]; [10]", "value": "27.0 (7.69–40.6) mg"}, {"measurement": "hepatic elimination route, share of total clearance", "setting": "[2]; [11]", "value": "~ 70%"}, {"measurement": "renal elimination route, share of total clearance", "setting": "[2]; [11]", "value": "~ 30%"}, {"measurement": "mean terminal half-life (t1/2)", "setting": "[2]; single oral dose of [14C]-rucaparib 600 mg", "value": 25.9, "unit": "h"}, {"measurement": "metabolic turnover rate", "setting": "[3]", "value": "low"}, {"measurement": "plasma protein binding", "setting": "[4]", "value": 70, "unit": "%"}, {"measurement": "AUC0-inf, Geometric mean ratio Moderate/normal (90% CI)", "setting": "[5]; [12]", "value": 1.446}, {"measurement": "AUC0–last, Geometric mean ratio Moderate/normal (90% CI)", "setting": "[5]; [12]", "value": "1.335 (0.617–2.891)"}, {"measurement": "Cmax, Geometric mean ratio Moderate/normal (90% CI)", "setting": "[5]; [12]", "value": "0.907 (0.605–1.362)"}, {"measurement": "AUC0-inf, Geometric mean ratio Moderate/normal (90% CI)", "setting": "[5]; ANOVA, NCI-ODWG moderate hepatic impairment vs normal hepatic function, listed as Rucaparib", "value": "1.446 (0.668–3.131)"}, {"measurement": "CL/F, GM", "setting": "[5]; [13]", "value": 64.0, "unit": "L/h"}, {"measurement": "CL/F, Mean (SD)", "setting": "[5]; [13]", "value": "82.2 (59.5) L/h"}, {"measurement": "CL/F, Median (min–max)", "setting": "[5]; [13]", "value": "68.3 (26.4–180) L/h"}, {"measurement": "CL/F, GM", "setting": "[5]; [14]", "value": 23.7, "unit": "L/h"}, {"measurement": "CL/F, Mean (SD)", "setting": "[5]; [14]", "value": "25.1 (8.62) L/h"}, {"measurement": "CL/F, Median (min–max)", "setting": "[5]; [14]", "value": "28.4 (14.6–34.6) L/h"}, {"measurement": "CL/F, GM", "setting": "[5]; [15]", "value": 22.2, "unit": "L/h"}, {"measurement": "CL/F, Mean (SD)", "setting": "[5]; [15]", "value": "39.6 (46.4) L/h"}, {"measurement": "CL/F, Median (min–max)", "setting": "[5]; [15]", "value": "39.6 (6.79–72.4) L/h"}, {"measurement": "CL/F, GM", "setting": "[5]; [16]", "value": 30.2, "unit": "L/h"}, {"measurement": "CL/F, Mean (SD)", "setting": "[5]; [16]", "value": "48.1 (56.8) L/h"}, {"measurement": "CL/F, Median (min–max)", "setting": "[5]; [16]", "value": "29.1 (6.79–180) L/h"}, {"measurement": "CL/F, GM", "setting": "[5]; [17]", "value": 43.7, "unit": "L/h"}, {"measurement": "CL/F, Mean (SD)", "setting": "[5]; [17]", "value": "55.7 (42.7) L/h"}, {"measurement": "CL/F, Median (min–max)", "setting": "[5]; [17]", "value": "33.1 (15.9–133) L/h"}, {"measurement": "AUC(0-inf)", "setting": "[5]; oral, AUC0-inf, Geometric LS means, ANOVA, NCI-ODWG moderate hepatic impairment (n = 8)", "value": 19900, "unit": "ng·h/mL"}, {"measurement": "AUC(0-inf)", "setting": "[5]; oral, AUC0-inf, Geometric LS means, ANOVA, NCI-ODWG normal hepatic function (n = 8)", "value": 13700, "unit": "ng·h/mL"}, {"measurement": "AUC(0-t)", "setting": "[5]; [18]", "value": 17500, "unit": "ng·h/mL"}, {"measurement": "AUC(0-t)", "setting": "[5]; [19]", "value": 13100, "unit": "ng·h/mL"}, {"measurement": "Cmax", "setting": "[5]; [18]", "value": 583, "unit": "ng/mL"}, {"measurement": "Cmax", "setting": "[5]; [19]", "value": 642, "unit": "ng/mL"}, {"measurement": "AUC(0-inf)", "setting": "[5]; po, AUC0–inf, GM, Child–Pugh mild hepatic impairment, single oral rucaparib 600 mg", "value": 9370, "unit": "ng·h/mL"}, {"measurement": "AUC(0-inf)", "setting": "[5]; po, AUC0–inf, GM, Child–Pugh moderate hepatic impairment, single oral rucaparib 600 mg", "value": 25300, "unit": "ng·h/mL"}, {"measurement": "AUC(0-inf)", "setting": "[5]; po, AUC0–inf, GM, Child–Pugh severe hepatic impairment, single oral rucaparib 600 mg", "value": 27100, "unit": "ng·h/mL"}, {"measurement": "AUC(0-inf)", "setting": "[5]; po, AUC0–inf, GM, NCI-ODWG moderate hepatic impairment, single oral rucaparib 600 mg", "value": 19900, "unit": "ng·h/mL"}, {"measurement": "AUC(0-inf)", "setting": "[5]; po, AUC0–inf, GM, NCI-ODWG normal hepatic function, single oral rucaparib 600 mg", "value": 13700, "unit": "ng·h/mL"}, {"measurement": "AUC(0-inf)", "setting": "[5]; po, AUC0–inf, Mean (SD), Child–Pugh mild hepatic impairment, single oral rucaparib 600 mg", "value": 11900, "unit": "ng·h/mL"}, {"measurement": "AUC(0-inf)", "setting": "[5]; po, AUC0–inf, Mean (SD), Child–Pugh moderate hepatic impairment, single oral rucaparib 600 mg", "value": 26800, "unit": "ng·h/mL"}, {"measurement": "AUC(0-inf)", "setting": "[5]; po, AUC0–inf, Mean (SD), Child–Pugh severe hepatic impairment, single oral rucaparib 600 mg", "value": 48300, "unit": "ng·h/mL"}, {"measurement": "AUC(0-inf)", "setting": "[5]; po, AUC0–inf, Mean (SD), NCI-ODWG moderate hepatic impairment, single oral rucaparib 600 mg", "value": 29000, "unit": "ng·h/mL"}, {"measurement": "AUC(0-inf)", "setting": "[5]; po, AUC0–inf, Mean (SD), NCI-ODWG normal hepatic function, single oral rucaparib 600 mg", "value": 17000, "unit": "ng·h/mL"}, {"measurement": "AUC(0-inf)", "setting": "[5]; po, AUC0–inf, Median (min–max), Child–Pugh mild hepatic impairment, single oral rucaparib 600 mg", "value": 8780, "unit": "ng·h/mL"}, {"measurement": "AUC(0-inf)", "setting": "[5]; po, AUC0–inf, Median (min–max), Child–Pugh moderate hepatic impairment, single oral rucaparib 600 mg", "value": 21100, "unit": "ng·h/mL"}]}]}
